Measured values from patent US20210290644A1, “COMPOUNDS AND METHODS FOR TREATING FUNGAL INFECTIONS” (Amplyx Pharmaceuticals, Inc., priority 2018, published 2021).
In brackets after ≈: the same amount, converted by molar mass. Entries after “also recorded” stand apart in the source; their conditions may differ. Where two headings read alike, the source gives them in different places.

Assays:
[1] = tested on: Candida (C. albicans, C. glabrata, or C. auris); experiment: PK-PD studies in immunocompromised mice infected with Candida (fungal burden, CFUs in the kidney); type: in vivo; conditions: dose fractionations
Procedure: In PK-PD studies, immunocompromised mice were infected with one of three spp. of Candida (C. albicans, C. glabrata, or C. auris) and groups of animals were dosed with Compound 1 at different dose fractionations. […] The stasis endpoint was defined as the quantity of Candida spp. in CFUs just prior to Compound 1 administration compared to CFUs at the endpoint of assessment (i.e., 24 hours for C. albicans; 96 hours for C. glabrata and C. auris).
In pharmacokinetic/pharmacodynamic (PK-PD) studies, immunocompromised mice were infected with one of three spp. of Candida (C. albicans, C. glabrata, or C. auris) and groups of animals were dosed with Compound 1 at different dose fractionations.

[2] = Study #2 Phase 1: pharmacokinetics after single IV and single/multiple oral doses of Compound 1, absolute oral bioavailability; conditions: Cohort 1A, Period A, 200 mg IV;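 also: phase 1 study design: one IV dose, then escalating single oral doses, fed versus fasted single oral dosing, and once-daily oral dosing over 14 days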
From the text: In the single ascending dose (SAD) phase, subjects in Cohort 1a received a single IV dose in Period A and then rising single oral doses in Periods B to D. Subjects in Cohort 1b received a single oral dose under fed and fasted conditions in Periods E and F. Subjects in Cohorts 2 and 3 received once-daily oral doses for 14 days, as did subjects in Cohort 4 as part of an in vivo screen for drug-drug interaction (DDI) potential.
For SAD Cohorts 1a and 1b, urine samples for the determination of Compound 1A were collected through 48 hrs after dosing.
Forty-six (46) subjects were enrolled into the study, 8 in Cohort 1a, 10 in Cohort 1b, and 8 each in Cohorts 2 and 3.

[3] = in vivo
[4] = Study #1 Phase 1: safety and tolerability (TEAEs) of IV Compound 1
Procedure: This was a Phase 1, first-in-human, randomized, double-blind, placebo-controlled single ascending dose (SAD) and multiple ascending dose (MAD) escalation study of 120 healthy male and female subjects.
In the single ascending dose (SAD) phase, Cohorts 1 to 6 and 11A to 11D received single doses. For Cohorts 11A to 11D, the infusion time varied from 0.5 to 3 hours to evaluate the relationship between C., and tolerability. In the multiple ascending dose (MAD) phase, Cohorts 7 to 10 received multiple doses over 14 days, and Cohort 12 examined the feasibility of a loading dose regimen.

[5] = Binary excipient compatibility study of Compound 1; type: physicochemical; conditions: binary mixtures, after 3 weeks at either storage condition
Procedure: For each excipient screened, there were […] (5° C., room temperature, 40° C./75% RH, 50° C.) that could be pulled at 3 weeks or 4 weeks as shown in Table 85. For contingency, one vial was stored at each condition per excipient. At each time point, an appropriate active sample control vial from each condition was reconstituted and analyzed in addition to the compatibility samples.

[6] = Compound 1 pH solubility at room temperature; type: physicochemical
[7] = Compound 1 Injection 20 mg/mL batch analysis and stability (appearance, HPLC assay, related substances, pH, particulate matter); type: physicochemical; conditions: 72-hour stability data at 20 mg/mL
Procedure: The HPLC method used in the stability studies for Compound 1 Injections, 20 mg/mL is a specific and stability-indicating method used for the determination of assay, related substances, content uniformity, identification, and absence of Compound 1 in Compound 1 Injection at 20 mg/mL. The method is a gradient reverse phase HPLC system to measure assay, purity, and related substances. The assay (% w/w) is determined by comparing the peak response of the sample to that of a standard. The same HPLC method used for purity and related substances is used to measure related substances. Related substances to Compound 1 drug substance are reported as area percent. The area of an impurity is divided by the total area of all sample-related peaks. Related substances are reported by retention time relative to the parent peak (RRT).
Compound 1 Injection, 20 mg/mL, was prepared as a non-buffered solution suitable for Phase 1 clinical studies containing Compound 1, sodium chloride, and pH adjustment using hydrochloric acid and/or sodium hydroxide to pH 7.5. […] Samples have been analyzed for appearance, assay, related substance, and pH. Compound 1 Injection, engineering batch #707 manufactured under GMP was placed on an ICH stability program at 5° C. and 25° C./60% RH. Samples have been analyzed for appearance, assay, related substance, particulate matter, and pH. […]

[8] = Additional Phase 1 study of Compound 1: IV loading, IV maintenance, then oral through Day 42, safety; type: in vivo, human; conditions: 1000 mg IV 3-hour BID Day 1, 600 mg IV 3-hour QD Days 2-7, 800 mg orally QD Days 8-42
[9] = pH stability of Compound 1 in buffer solutions stored at 40° C.; type: physicochemical; conditions: buffer solutions pH 7-8, stored at 40° C., up to seven days
Procedure: The pH stability in buffer solutions were also evaluated for pH levels 7, 8, and 9 when stored at 40° C.

[10] = 1000 mg/0.5 hr IV single dose group
[11] = 1000 mg/1 hr IV single dose group
[12] = 1000 mg/2 hr IV single dose group
[13] = 1000 mg/3 hr IV single dose group
[14] = Cohort 12 loading dose regimen (1000 mg IV 2-hour twice on Day 1 + 600 mg IV 1-hr QD Days 2-7)
[15] = 100 mg sd oral treatment period
[16] = 300 mg sd oral treatment period
[17] = 500 mg sd oral treatment period

## Nc1c(-c2cc(Cc3ccc(COc4ccccn4)cc3)no2)ccc[n+]1COP(=O)([O-])O [Compound 1]
[1]
  PK-PD variable that best correlated with antifungal efficacy (fungal burden, CFUs in the kidney): AUC/MIC ratio
[2]
  time after IV infusion through which prodrug plasma concentrations were ≥LOQ: ≤ 4 h
[3]; both, human, iv
  exposures to the prodrug relative to those of the active Compound 1A: < 5%
  time after start of infusion by which prodrug concentrations are <LOQ: at most 8 hrs
[3]
  accumulation of prodrug following multiple dosing: essentially no accumulation
[4]; [10]
  number of TEAEs: 21 TEAEs
  subjects reporting TEAEs: 100%
[4]; [11]
  number of TEAEs: 25 TEAEs
  subjects reporting TEAEs: 100%
[4]; [12]
  number of TEAEs: 22 TEAEs
  subjects reporting TEAEs: 100%
[4]; [13]
  number of TEAEs: 13 TEAEs
  subjects reporting TEAEs: 83%
[4]; [14]
  number of TEAEs: 38 TEAEs
  subjects reporting TEAEs: 100%
[4]; Study #1 and Study #2
  maximum tolerated dose (MTD): not determined/not reached
  severe TEAEs or SAEs: no severe or very severe TEAEs or SAEs reported
[4]; Study #1 and Study #2 (two Phase 1 studies)
  dose-limiting toxicities: no dose-limiting toxicities observed; also recorded: No DLTs were observed
[4]; all single and multiple IV and oral doses, Study #1 and Study #2
  tolerability: well tolerated
[4]; faster infusions (single dose: 2, 1 and 0.5 hrs; multiple dose: 1 hr)
  safety and tolerability: safe and well tolerated
[4]; loading dose 1000 mg IV twice on Day 1 (2-hr infusion), maintenance 600 mg QD
  safety and tolerability: safe and well tolerated
[4]; multiple IV doses up to 600 mg once daily for 14 consecutive days
  tolerability: well tolerated by the majority of subjects
[4]; single IV doses up to 350 mg over 3 hours and 1000 mg over 0.5-, 1-, 2-, 3-hour infusions
  tolerability: well tolerated
[5]
  compatibility with excipients (total purity profile): compatible with the tested excipients
[6]; 50 mM phosphate buffer, pH 7.5, aqueous buffer, Study B, pH 7.5 (50 mM phosphate buffer)
  solubility: 141000 µg/mL (≈ 301 mM)
[6]; pH 1, simulated gastric fluid, Study A, pH 1
  solubility: 3830 µg/mL (≈ 8.18 mM)
[6]; pH 3, aqueous buffer, Study A, pH 3
  solubility: 111 µg/mL (≈ 0.237 mM)
[6]; pH 4, aqueous buffer, Study A, pH 4
  solubility: 63 µg/mL (≈ 0.134 mM)
[6]; pH 5, aqueous buffer, Study A, pH 5
  solubility: 125 µg/mL (≈ 0.267 mM)
[6]; pH 6, aqueous buffer, Study A, pH 6
  solubility: 758 µg/mL (≈ 1.62 mM)
[6]; pH 6.5, aqueous buffer, Study B, pH 6.5
  solubility: 4300 µg/mL (≈ 9.18 mM)
[6]; pH 7, aqueous buffer, Study A, pH 7, saturation not achieved
  solubility: > 17600 µg/mL
[6]; pH 7, aqueous buffer, Study B, pH 7.0
  solubility: 53700 µg/mL (≈ 115 mM)
[6]; pH 7.5, aqueous buffer, Study A, pH 7.5, saturation not achieved
  solubility: > 28500 µg/mL
[6]; pH 8.5, aqueous buffer, Study A, pH 8.5, saturation not achieved
  solubility: > 80000 µg/mL
[6]; phosphate buffer, pH 7, aqueous buffer, Study B, pH 7.0 (with phosphate buffer)
  solubility: 20900 µg/mL (≈ 44.6 mM)
[7]
  degradation: < 0.10%
[8]
  safety and tolerability: safe and well tolerated
[15]
  number of TEAEs: 2 TEAEs
  subjects reporting TEAEs: 33%
200 mg sd IV treatment period
  number of TEAEs: 3 TEAEs
  subjects reporting TEAEs: 50%
[16]
  number of TEAEs: 6 TEAEs
  subjects reporting TEAEs: 50%
500 mg md oral group
  number of TEAEs: 24 TEAEs
  subjects reporting TEAEs: 83%
[17]
  number of TEAEs: 1 TEAE
  subjects reporting TEAEs: 17%
1000 mg PO QD on Days 1 through 14
  safety and tolerability: safe and well tolerated
1000 mg md oral group
  number of TEAEs: 119 TEAEs
  subjects reporting TEAEs: 100%
Study #2
  deaths or SAEs: no deaths or SAEs reported
  dose-limiting toxicities (DLTs): No DLTs were observed
  maximum tolerated dose (MTD): not determined/reached
All doses in Study #2
  safety and tolerability: safe and well tolerated
Multiple oral doses of 500 mg and 1000 mg once daily for 14 consecutive days
  tolerability: well tolerated by the majority of subjects
Single IV doses of 200 mg and single oral doses 100 mg to 500 mg
  tolerability: well tolerated
single-dose crossover food effect cohort, TEAEs related to Gastrointestinal and Nervous System Disorders
  effect of dosing under fed conditions on tolerability: improve tolerability
[9]
  change in potency: < 3%
